What was measured:
[1] = target: T1, human TRPV1 receptor (hTRPV1) (Homo sapiens, UniProt Q8NER1); test: Capsaicin activation assay (Ca2+ influx, FLIPR); format: cell-based; settings: 0.05 μM capsaicin, 1321N1 cells expressing hTRPV1
T1 construct: expressed in transfected cells

human TRPV1 = target: T2, human TRPV1 (Homo sapiens, UniProt Q8NER1); test: Acid activation assay - ratiometric calcium imaging of capsaicin- or acid-induced responses; format: cell-based; settings: Example 30 at 3 μM, HEK293-F cells expressing human TRPV1, FIG. 1; for block of TRPV1-mediated increase in intracellular calcium concentration in response to capsaicin: capsaicin 1 μM; for block of TRPV1-mediated increase in intracellular calcium concentration in response to acid: pH 5.5
T2 construct: expressed in transfected cells; host or cells: HEK293-F cells, transient transfection
Experimental: The differential effects of TRPV1 antagonists on capsaicin- or acid-induced responses were verified by ratiometric calcium imaging. Transiently transfected HEK293-F cells expressing human TRPV1 were incubated with 5 μM Fura-2AM for 30 minutes at 37° C. Intracellular calcium concentration was measured on an imaging system consisting of the X-Cite™ 120 Fluorescence Illumination System (EXFO) and a Digital Camera (C4742-95, Hamamatsu Photonics) connected to an Olympus 1×71 microscope. Through the control of Slide Book 4.2 software, fluorescence was measured during excitation at 340 and 380 nm; the ratio of the fluorescence at both excitation wavelengths (F340/F380) was monitored. D-PBS, pH 7.4 (Invitrogen, catalog no. 14287) was used as the extracellular solution. Acidic buffer was prepared by titrating D-PBS, pH 7.4 with 7 N HCl to pH 5.5. Agonists and antagonists were prepared in the pH 7.4 or 5.5 solutions. Rapid solution switch was achieved by using a ValveLink system. […] Over the 2100-second time course, the cells were continuously perfused with D-PBS, pH7.4 or challenged sequentially with solutions containing Example 30 (3 μM), Example 30 (3 μM) plus capsaicin (1 μM), Example 30 (3 μM) plus acid (pH 5.5), acid (pH 5.5) alone, or capsaicin (1 μM) alone. The black bars above the traces designate addition and duration of solution applications. Spaces between horizontal bars represent periods in which cells were perfused with D-PBS, pH 7.4.

[2] = Rat telemetry protocol (core body temperature); format: in vivo; settings: core body temperature of rats at one hour post dosing (100 μmol/kg, p.o.), relative to vehicle

T2 sequence (Q8NER1 whole entry): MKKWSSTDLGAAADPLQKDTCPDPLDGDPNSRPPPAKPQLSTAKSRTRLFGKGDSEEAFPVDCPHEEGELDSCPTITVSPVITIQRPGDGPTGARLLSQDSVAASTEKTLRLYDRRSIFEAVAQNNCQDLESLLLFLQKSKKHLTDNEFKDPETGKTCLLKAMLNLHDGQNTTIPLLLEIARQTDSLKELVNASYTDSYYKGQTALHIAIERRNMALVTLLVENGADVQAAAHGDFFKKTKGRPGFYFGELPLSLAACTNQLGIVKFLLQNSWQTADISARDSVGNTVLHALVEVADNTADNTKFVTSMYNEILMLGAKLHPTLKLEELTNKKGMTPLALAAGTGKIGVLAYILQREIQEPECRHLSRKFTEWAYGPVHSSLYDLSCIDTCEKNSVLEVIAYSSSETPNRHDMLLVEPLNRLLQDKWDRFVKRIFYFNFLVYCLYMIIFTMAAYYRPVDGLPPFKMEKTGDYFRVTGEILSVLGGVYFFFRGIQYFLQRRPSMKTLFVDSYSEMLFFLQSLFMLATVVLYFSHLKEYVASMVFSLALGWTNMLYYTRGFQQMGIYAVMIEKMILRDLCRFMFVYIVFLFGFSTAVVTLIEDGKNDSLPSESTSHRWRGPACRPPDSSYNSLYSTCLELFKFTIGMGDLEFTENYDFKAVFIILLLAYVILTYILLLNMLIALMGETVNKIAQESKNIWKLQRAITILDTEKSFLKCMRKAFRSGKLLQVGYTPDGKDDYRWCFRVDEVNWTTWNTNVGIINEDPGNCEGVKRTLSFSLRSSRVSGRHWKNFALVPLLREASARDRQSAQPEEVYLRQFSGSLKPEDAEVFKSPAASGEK
T1 sequence (Q8NER1 whole entry): as above

IC50 [1] | block of TRPV1-mediated increase in intracellular calcium concentration in response to capsaicin (human TRPV1) | block of TRPV1-mediated increase in intracellular calcium concentration in response to acid (human TRPV1) | Compound | Δ Temp [2]
0.017 µM | completely blocked | completely blocked | CC1(C)C[C@@H](NC(=O)Nc2cccc3c2C[C@H](O)CC3)c2ccc(F)cc2O1 [Example 30, N-[(4R)-7-fluoro-2,2-dimethyl-3,4-dihydro-2H-chromen-4-yl]-N′-[(7R)-7-hydroxy-5,6,7,8-tetrahydronaphthalen-1-yl]urea] | 1.1 °C
0.02 µM | completely blocked | completely blocked | CC1(C)C[C@@H](NC(=O)Nc2cccc3c2C[C@@H](O)CC3)c2ccc(F)cc2O1 [Example 31, N-[(4R)-7-fluoro-2,2-dimethyl-3,4-dihydro-2H-chromen-4-yl]-N′-[(7S)-7-hydroxy-5,6,7,8-tetrahydronaphthalen-1-yl]urea] | 1.0 °C

Compound | IC50 [1] | block of TRPV1-mediated increase in intracellular calcium concentration in response to capsaicin (human TRPV1) | block of TRPV1-mediated increase in intracellular calcium concentration in response to acid (human TRPV1) | Δ Temp [2]
N-[(4R)-8-tert-butyl-3,4-dihydro-2H-chromen-4-yl]-N-(3-methylisoquinolin-5-yl)urea, hydrochloride salt [Example 100] | 0.007 µM |  |  | 1.7 °C

From patent US8609692B2, “TRPV1 antagonists” (AbbVie Inc., priority 2008, dated 2013)
